From patent US10617690B2 (priority 2015, dated 2020)

Assays:
JAK2 protein kinase = JAK2 protein kinase (Homo sapiens, UniProt O60674); experiment: biochemical; conditions: 12 uM ATP, 60 min;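 note: recombinant human JAK2 with ULight-labelled JAK-1(Tyr1023) peptide substrate, phosphorylation detected by TR-FRET using Eu-labelled anti-phosphotyrosine antibody, 1% DMSO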
Description: (§1) Recombinant humanized JAK1, JAK2 and JAK3 protease were all purchased from Life technology. LANCE Ultra ULight™-JAK-1(Tyr1023) peptide and LANCE Eu-W1024 Anti-phosphotyrosine (PT66) were both purchased from PerkinElmer. Envision (PerkinElmer) was used to read a plate.
(§2) The reading was converted into a suppression ratio as follow equation: (%)=(Min−Ratio)/(Max−Min)*100%.

JAK1 protein kinase = JAK1 protein kinase (Homo sapiens, UniProt P23458); experiment: biochemical; conditions: 38 uM ATP, 90 min
Description: In Vitro Activity Test of Jak1, Jak 2 and Jak 3 Kinase
Recombinant humanized JAK1, JAK2 and JAK3 […] were all purchased from Life technology. LANCE Ultra ULight™-JAK-1(Tyr1023) peptide and LANCE Eu-W1024 Anti-phosphotyrosine (PT66) were both purchased from PerkinElmer. Envision (PerkinElmer) was used to read a plate.
Three dilution of a test compound was prepared, and 11 final concentrations were obtained: 10 uM to 0.17 nM. Each concentration had two repeat wells. The content of DMSO in a detection reaction was 1%.
2 nM JAK1 protein kinase, 50 nM LANCE Ultra ULight™-JAK-1(Tyr1023) peptide, 38 uM ATP, 50 mM HEPES (pH7.5), 10 mM MgCl2, 1 mM EGTA, 2 mM DTT, and 0.01% BRIJ-35. Detection plate was White Proxiplate 384-Plus plate (PerkinElmer), the reaction was conducted for 90 min at room temperature, and reaction system was 10 ul.
10 ul detection reagent was added into the reaction plate, wherein the final concentration of LANCE Eu-W1024 Anti-phosphotyrosine (PT66) was 2 nM, the final concentration of EDTA was 10 mM, incubation was conducted for 60 min at room temperature, and the plate was read by the Envision.
The reading was converted into a suppression ratio as follow equation: (%)=([…])/(Max−Min)*100%. IC50 data was detected by 4 parametric curve fitting (Model 205 in XLFIT5, iDBS), see Table 1.

JAK3 = molecular target: T1, JAK3 (Homo sapiens, UniProt P52333); experiment: In vitro activity test of JAK3 kinase (LANCE Ultra TR-FRET); assay type: biochemical;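 note: recombinant human JAK3 phosphorylating ULight-JAK-1(Tyr1023) peptide at 4 µM ATP, with 1% DMSO, detected by Eu-anti-phosphotyrosine TR-FRET on Envision and converted to percent inhibition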
T1 construct: purchased Life technology
T1 sequence (P52333 1-1124): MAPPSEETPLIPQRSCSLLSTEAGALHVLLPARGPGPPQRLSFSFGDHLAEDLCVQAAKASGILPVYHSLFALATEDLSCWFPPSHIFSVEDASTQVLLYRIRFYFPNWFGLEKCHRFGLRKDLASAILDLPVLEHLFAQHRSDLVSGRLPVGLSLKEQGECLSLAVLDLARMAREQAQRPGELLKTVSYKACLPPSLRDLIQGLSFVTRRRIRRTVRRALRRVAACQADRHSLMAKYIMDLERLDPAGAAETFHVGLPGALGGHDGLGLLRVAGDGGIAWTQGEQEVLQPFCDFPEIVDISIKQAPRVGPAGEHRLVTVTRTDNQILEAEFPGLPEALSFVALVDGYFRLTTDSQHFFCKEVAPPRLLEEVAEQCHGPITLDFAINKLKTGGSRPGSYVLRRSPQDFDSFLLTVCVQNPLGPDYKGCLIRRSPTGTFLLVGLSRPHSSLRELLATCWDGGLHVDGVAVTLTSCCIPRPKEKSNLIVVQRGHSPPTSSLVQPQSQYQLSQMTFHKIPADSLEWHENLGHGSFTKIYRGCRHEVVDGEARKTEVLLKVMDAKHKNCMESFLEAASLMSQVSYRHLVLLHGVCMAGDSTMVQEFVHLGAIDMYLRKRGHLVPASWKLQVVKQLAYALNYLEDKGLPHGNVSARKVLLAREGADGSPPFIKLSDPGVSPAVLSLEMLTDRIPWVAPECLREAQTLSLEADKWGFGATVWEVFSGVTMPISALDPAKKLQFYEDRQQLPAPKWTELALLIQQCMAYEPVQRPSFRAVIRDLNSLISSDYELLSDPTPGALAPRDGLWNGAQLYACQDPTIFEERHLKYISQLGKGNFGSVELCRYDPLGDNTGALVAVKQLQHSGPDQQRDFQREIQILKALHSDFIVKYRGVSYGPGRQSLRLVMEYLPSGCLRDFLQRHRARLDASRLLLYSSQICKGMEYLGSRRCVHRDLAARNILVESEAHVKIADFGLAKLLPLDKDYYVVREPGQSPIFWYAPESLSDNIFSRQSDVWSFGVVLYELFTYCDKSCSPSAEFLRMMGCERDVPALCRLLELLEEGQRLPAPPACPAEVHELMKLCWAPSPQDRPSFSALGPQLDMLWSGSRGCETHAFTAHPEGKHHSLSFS
Description: as §1
0.05 nM protein kinase, 50 nM LANCE Ultra ULight™-JAK-1(Tyr1023) peptide, 4 uM ATP, 50 mM HEPES (pH7.5), 10 mM MgCl2, 1 mM EGTA, 2 mM DTT, and 0.01% BRIJ-35.
as §2

Chain of JAK2 protein kinase (O60674 whole entry): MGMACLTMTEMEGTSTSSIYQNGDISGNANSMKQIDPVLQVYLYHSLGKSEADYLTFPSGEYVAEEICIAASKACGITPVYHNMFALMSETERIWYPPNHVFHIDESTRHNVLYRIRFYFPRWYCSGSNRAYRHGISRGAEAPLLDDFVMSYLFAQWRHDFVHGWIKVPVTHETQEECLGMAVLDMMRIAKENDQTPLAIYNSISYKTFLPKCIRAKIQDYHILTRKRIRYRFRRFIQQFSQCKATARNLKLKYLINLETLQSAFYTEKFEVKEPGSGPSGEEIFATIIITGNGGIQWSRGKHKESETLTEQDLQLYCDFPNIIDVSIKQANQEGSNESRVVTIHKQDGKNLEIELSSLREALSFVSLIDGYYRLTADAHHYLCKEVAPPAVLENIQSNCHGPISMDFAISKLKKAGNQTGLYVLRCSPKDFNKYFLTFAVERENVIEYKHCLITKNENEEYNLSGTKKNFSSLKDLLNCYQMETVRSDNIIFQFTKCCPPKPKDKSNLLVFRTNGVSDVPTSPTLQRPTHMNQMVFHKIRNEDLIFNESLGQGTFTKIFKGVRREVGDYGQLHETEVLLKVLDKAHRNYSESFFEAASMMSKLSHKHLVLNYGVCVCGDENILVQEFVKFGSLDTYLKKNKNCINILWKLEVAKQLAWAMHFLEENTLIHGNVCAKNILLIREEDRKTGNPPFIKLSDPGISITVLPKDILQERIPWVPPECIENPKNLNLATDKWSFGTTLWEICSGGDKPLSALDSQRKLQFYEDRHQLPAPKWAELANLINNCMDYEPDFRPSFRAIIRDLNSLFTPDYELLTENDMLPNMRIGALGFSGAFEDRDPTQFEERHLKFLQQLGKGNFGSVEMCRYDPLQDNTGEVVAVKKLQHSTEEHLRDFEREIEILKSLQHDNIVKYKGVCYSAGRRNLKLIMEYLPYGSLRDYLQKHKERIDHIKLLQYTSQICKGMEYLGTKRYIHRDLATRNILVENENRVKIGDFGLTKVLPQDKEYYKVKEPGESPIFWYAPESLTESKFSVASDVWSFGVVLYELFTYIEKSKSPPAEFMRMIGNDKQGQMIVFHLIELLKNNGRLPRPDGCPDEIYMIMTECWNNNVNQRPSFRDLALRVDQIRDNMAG
Chain of JAK1 protein kinase (P23458 whole entry): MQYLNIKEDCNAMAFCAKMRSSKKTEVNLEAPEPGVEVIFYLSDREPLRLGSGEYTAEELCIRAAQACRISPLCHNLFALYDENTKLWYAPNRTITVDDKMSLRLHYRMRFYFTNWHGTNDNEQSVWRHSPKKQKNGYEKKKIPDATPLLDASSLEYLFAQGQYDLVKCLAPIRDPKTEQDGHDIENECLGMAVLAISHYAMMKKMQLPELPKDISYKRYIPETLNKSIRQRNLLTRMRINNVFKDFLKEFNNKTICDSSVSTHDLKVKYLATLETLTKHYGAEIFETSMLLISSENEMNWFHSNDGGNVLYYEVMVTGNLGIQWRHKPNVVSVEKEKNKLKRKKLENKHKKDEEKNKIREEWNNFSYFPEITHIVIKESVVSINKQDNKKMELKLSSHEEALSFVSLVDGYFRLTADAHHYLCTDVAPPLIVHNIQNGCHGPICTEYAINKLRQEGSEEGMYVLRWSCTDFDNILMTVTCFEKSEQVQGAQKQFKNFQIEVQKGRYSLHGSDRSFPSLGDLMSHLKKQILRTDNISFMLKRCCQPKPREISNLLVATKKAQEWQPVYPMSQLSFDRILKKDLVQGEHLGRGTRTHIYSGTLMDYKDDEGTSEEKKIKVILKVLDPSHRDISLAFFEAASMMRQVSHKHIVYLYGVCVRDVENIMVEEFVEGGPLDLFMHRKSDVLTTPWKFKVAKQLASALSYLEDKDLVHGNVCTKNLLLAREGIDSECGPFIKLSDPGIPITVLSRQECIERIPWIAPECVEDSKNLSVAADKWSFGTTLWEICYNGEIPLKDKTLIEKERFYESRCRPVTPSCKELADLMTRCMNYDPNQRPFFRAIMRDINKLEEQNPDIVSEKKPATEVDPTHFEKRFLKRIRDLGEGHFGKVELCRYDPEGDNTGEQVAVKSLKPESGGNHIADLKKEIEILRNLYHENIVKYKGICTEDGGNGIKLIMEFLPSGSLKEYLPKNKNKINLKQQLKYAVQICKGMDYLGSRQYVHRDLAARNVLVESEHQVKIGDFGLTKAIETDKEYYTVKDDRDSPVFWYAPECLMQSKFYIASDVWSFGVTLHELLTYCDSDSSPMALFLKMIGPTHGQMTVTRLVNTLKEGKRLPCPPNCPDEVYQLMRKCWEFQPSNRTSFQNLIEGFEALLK

Compound | IC50 (JAK2 protein kinase) [nM] | IC50 (JAK1 protein kinase) [nM] | IC50 (JAK3) [nM]
CCOC(=O)C1CCCN(N(C)c2ncnc3[nH]ccc23)C1 (stereo not drawn) [WX10, Ethyl 1-[methyl(7H-pyrrolo[2,3-d]pyrimidin-4-yl)amino]piperidyl-3-carboxylate] | 100 to 1000 | 10 to 100 | 10 to 100
CN(c1ncnc2[nH]ccc12)N1CCCC(C(=O)NC2CC(F)(F)C2)C1 (stereo not drawn) [WX56] | > 1000 | < 10 | 10 to 100
CN(c1ncnc2[nH]ccc12)N1CCCC(CNC(=O)CC(F)(F)F)C1 (stereo not drawn) [WX19, 3,3,3-trifluoro-N-((1-(methyl(7H-pyrrole[2,3-d]pyrimidine-4-)amino)piperidyl-3-)methyl)propionamide] | > 1000 | 100 to 1000 | 100 to 1000
CN(c1ncnc2[nH]ccc12)N1CCC(C(=O)NCC(F)(F)F)CC1 [WX23] | 100 to 1000 | 10 to 100 | 10 to 100
CN(c1ncnc2[nH]ccc12)N1CCC[C@H](C(=O)NCC#N)C1 (single isomer, unassigned) [WX09, (S or R)—N-(cyanomethyl-1-[methyl(7H-pyrrolo[2,3-d]pyrimidin-4-yl)amino]piperidyl)-3-formamide] | > 1000 | 100 to 1000 | > 1000
N#CCNC(=O)C1CCN(Nc2ncnc3[nH]ccc23)CC1 [WX21] | > 1000 | 10 to 100 | 100 to 1000
CN(c1ncnc2[nH]ccc12)N1CCCC(CC#N)C1 (stereo not drawn) [WX44, 2-[1-[methyl[7H-pyrrole[2,3-d]pyrimidine-4-]amino]-3-piperidyl]acetonitrile] | 100 to 1000 | 10 to 100 | 100 to 1000
CN(c1ncnc2[nH]ccc12)N1CCCC(CNC(=O)CC#N)C1 (stereo not drawn) [WX45] | 100 to 1000 | 10 to 100 | 100 to 1000
CN(c1ccnc2[nH]ccc12)N1CCCC(C(=O)NCC(F)(F)F)C1 (stereo not drawn) [WX15, N-(2,2,2-trifluoroethyl)-1-(methyl(1H-pyrrole[2,3-d]pyridin-4-yl)amino)piperidyl-3-formamide] | 100 to 1000 | 10 to 100 | 100 to 1000
CN(c1ncnc2[nH]ccc12)N1CCC(C(=O)NCC(F)(F)F)C1 (stereo not drawn) [WX31, 1-[methyl(7H-pyrrolo[2,3-d]pyrimidin-4-yl)amino]-N-(2,2,2-trifluoroethyl)pyrrolidyl-3-formamide] | 10 to 100 | < 10 | 10 to 100
CN(c1ncnc2[nH]ccc12)N1CCCC(C(=O)NCC(F)(F)C(F)(F)F)C1 (stereo not drawn) [WX46, 1-[methyl(7H-pyrrole[2,3-d]pyrimidine-4-)amino]-N-(2,2,3,3,3-pentafluoropropyl)piperidyl-3-formamide] | 10 to 100 | ≤ 10 | 10 to 100
CN(c1ncnc2[nH]ccc12)N1CCC(C(=O)NCC(F)(F)F)C1 (single isomer, unassigned) [WX32, (R or S)-1-[methyl(7H-pyrrolo[2,3-d]pyrimidin-4-yl)amino]-N-(2,2,2-trifluoroethyl) pyrrolidyl-3-formamide] | < 10 | < 10 | 10 to 100
CN(c1ncnc2[nH]ccc12)N1CCC[C@@H](C(=O)NCC(F)F)C1 (single isomer, unassigned) [WX49, (3R or 3S)-1-[methyl(7H-pyrrole[2,3-d]pyrimidine-4-)amino]-N-(2,2-difluoroethyl)piperidyl-3-formamide] | < 10 | < 10 | < 10
CN(c1ncnc2[nH]ccc12)N1CCCC(NC(=O)CC#N)C1 (stereo not drawn) [WX12] | > 1000 | 100 to 1000 | 100 to 1000
O=C(CC(F)(F)F)N1CCCN(Nc2ncnc3[nH]ccc23)CC1 [WX35, L-(4-((7H-pyrrolo[2,3-d]pyrimidin-4-yl)amino)-diazepan-1-yl)-3,3,3-trifluorotrifluoropropan-1-one] | > 1000 | > 1000 | > 1000
O=C(NCC(F)(F)F)C1CCN(Nc2ncnc3[nH]ccc23)CC1 [WX22] | > 1000 | 100 to 1000 | 100 to 1000
CC1CCC2CN1N(c1ncnc3[nH]ccc13)C2=O (stereo not drawn) [WX28, 2-methyl-7-(7H-pyrrolo[2,3-d]pyrimidin-4-yl)-1,7-diazabicyclo[3.2.1]octan-6-one] | > 1000 | > 1000 | > 1000
CN(c1ncnc2[nH]ccc12)N1CCCC(c2ncc(C(F)(F)F)[nH]2)C1 (stereo not drawn) [WX57, N-methyl-N-[3-[5-trifluoromethyl-1H-imidazol-2-yl]-1-piperidinyl]-7H-pyrrolo[2,3-d]pyrimidine-4-amine] | 10 to 100 | 10 to 100 | 10 to 100
O=C(NCC(F)(F)F)C1CN(Nc2ncnc3[nH]ccc23)CCO1 (stereo not drawn) [WX40, 4-((7H-pyrrolo[2,3-d]pyrimidin-4-yl)amino)-N-(2,2,2-trifluoroethyl)morpholine-2-form amide] | > 1000 | 10 to 100 | > 1000
N#CCNC(=O)C1CCCN(Nc2ncnc3[nH]ccc23)C1 (stereo not drawn) [WX03, N-(cyanomethyl)-1-(7H-pyrrolo[2,3-d]pyrimidin-4-yl-amino)piperidyl-3-formamide] | 10 to 100 | < 10 | 10 to 100
CSCNC(=O)C1CCCN(N(C)c2ncnc3[nH]ccc23)C1 (stereo not drawn) [WX43] | 10 to 100 | < 10 | 10 to 100
CN(c1ncnc2[nH]ccc12)N1CCCC(C)(C(=O)NCC#N)C1 (stereo not drawn) [WX37, N-(cyanomethyl)-3-methyl-1-[methyl(7H-pyrrolo[2,3-d]pyrimidie-yl)amino]piperidyl-3-formamide] | > 1000 | > 1000 | > 1000
O=C(NCC(F)(F)F)C1CCC2(CC1)CCN(Nc1ncnc3[nH]ccc13)CC2 [WX59] | > 1000 | 100 to 1000 | > 1000
N#CCC(=O)N1CC2CCN(Nc3ncnc4[nH]ccc34)CC2C1 (stereo not drawn) [WX55, 3-[5-(7H-pyrrolo[2,3-d]pyrimidin-4-ylamino)-hexahydro-1H-pyrrolo[3,4-c]pyridin-2-yl]3-oxopropanenitrile] | > 1000 | 100 to 1000 | > 1000
CC1CCC(C(=O)NCC(F)(F)F)CN1N(C)c1ncnc2[nH]ccc12 (stereo not drawn) [WX27, 6-methyl-1-(methyl(7H-pyrrole[2,3-d]pyrimidin-4-yl)amino)-N-(2,2,2-trifluoroethyl)piperidyl-3-formamide] | > 1000 | 100 to 1000 | 100 to 1000
